The results in this text go back to ChEMBL document CHEMBL1143919, “Sugar Chips immobilized with synthetic sulfated disaccharides of heparin/heparan sulfate partial structure” (Bioorg Med Chem Lett, 2008).

A word on the Kd: it is the constant that tells how readily two partners part at equilibrium.

Each structure is given as a SMILES string.

For one assay, the target named is Fibronectin (Homo sapiens, UniProt P02751). Nature of the assay: Binding affinity to fibronectin using surface plasmon resonance imaging sensor method.
A short description of assay [1]: Binding affinity to human recombinant von Willebrand factor A1 domain using surface plasmon resonance imaging sensor.

Chain of Fibronectin (P02751 whole entry, the tested form may be a part): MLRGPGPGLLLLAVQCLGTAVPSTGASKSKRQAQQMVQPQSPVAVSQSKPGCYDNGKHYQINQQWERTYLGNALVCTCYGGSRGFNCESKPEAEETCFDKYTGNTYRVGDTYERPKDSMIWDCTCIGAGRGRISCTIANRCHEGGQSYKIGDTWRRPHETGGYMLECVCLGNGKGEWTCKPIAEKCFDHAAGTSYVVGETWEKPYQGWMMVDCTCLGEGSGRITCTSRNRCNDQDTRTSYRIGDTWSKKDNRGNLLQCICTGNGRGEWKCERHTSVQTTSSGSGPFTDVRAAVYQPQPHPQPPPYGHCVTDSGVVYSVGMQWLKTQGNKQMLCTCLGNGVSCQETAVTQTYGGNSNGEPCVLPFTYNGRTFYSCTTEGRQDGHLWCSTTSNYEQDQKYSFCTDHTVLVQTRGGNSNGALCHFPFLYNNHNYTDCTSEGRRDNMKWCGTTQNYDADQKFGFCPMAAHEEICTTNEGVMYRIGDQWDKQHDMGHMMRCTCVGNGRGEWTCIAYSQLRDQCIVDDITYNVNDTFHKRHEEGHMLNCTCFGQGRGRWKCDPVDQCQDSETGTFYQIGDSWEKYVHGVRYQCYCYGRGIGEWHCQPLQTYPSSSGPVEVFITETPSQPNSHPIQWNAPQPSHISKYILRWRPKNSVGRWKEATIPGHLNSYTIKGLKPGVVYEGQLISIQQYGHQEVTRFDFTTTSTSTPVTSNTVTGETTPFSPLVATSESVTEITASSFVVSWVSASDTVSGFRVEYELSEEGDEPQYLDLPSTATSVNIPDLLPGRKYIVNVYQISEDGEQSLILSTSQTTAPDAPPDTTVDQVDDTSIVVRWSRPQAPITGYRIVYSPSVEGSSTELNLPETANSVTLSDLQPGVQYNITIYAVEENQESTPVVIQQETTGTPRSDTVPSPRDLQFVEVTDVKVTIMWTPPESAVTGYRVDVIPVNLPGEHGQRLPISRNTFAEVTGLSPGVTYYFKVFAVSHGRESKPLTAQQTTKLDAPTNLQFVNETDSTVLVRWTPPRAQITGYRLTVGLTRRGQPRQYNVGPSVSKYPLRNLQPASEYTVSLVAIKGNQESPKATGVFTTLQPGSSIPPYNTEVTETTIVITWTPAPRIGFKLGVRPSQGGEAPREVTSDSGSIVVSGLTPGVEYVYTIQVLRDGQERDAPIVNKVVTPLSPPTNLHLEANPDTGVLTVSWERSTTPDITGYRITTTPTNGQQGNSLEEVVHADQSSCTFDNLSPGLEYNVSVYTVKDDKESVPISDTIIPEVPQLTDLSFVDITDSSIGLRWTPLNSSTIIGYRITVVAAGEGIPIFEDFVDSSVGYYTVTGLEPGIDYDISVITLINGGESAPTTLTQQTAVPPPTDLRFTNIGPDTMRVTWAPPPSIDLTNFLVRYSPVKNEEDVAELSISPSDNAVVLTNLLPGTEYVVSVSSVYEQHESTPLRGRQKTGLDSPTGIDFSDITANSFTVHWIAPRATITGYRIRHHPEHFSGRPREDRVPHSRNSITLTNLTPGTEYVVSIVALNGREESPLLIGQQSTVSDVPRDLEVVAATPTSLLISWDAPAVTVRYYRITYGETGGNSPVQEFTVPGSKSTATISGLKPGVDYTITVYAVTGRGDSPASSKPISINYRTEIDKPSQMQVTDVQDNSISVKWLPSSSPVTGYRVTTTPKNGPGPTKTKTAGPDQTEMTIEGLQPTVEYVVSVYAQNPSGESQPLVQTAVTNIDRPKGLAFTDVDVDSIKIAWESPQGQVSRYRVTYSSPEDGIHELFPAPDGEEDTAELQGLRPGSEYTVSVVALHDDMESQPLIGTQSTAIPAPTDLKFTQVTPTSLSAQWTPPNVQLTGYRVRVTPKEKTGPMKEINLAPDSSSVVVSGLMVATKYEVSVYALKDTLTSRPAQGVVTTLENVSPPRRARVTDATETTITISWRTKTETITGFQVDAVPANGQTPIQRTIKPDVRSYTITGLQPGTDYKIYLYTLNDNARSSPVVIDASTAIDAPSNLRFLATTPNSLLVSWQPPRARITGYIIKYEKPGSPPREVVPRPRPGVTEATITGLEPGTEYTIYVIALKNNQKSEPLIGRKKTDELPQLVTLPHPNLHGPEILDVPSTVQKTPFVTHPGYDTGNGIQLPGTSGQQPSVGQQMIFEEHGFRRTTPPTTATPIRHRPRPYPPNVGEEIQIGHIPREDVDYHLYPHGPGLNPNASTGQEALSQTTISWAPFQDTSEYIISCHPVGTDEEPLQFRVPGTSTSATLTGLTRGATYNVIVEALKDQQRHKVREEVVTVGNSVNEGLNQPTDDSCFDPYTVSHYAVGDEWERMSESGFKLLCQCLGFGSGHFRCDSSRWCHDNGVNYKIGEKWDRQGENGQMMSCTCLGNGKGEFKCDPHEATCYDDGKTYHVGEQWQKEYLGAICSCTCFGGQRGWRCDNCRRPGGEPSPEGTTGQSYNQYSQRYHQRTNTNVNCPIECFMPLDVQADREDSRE

With `CO[C@H]1[C@H](O)[C@@H](NS(=O)(=O)O)[C@@H](O[C@H]2[C@H](O)[C@@H](O)[C@H](OC[C@@H](O)[C@@H](O)[C@H](O)[C@@H](O)CNc3cccc(NC(=O)CCCCC4CCSS4)c3)O[C@@H]2C(=O)O)O[C@@H]1COS(=O)(=O)O` (stereo partly drawn), the results for the Kd (on Fibronectin; in assay [1]) were 6.5 nM and 1400 nM, respectively.

As for `CO[C@H]1[C@H](O)[C@@H](NS(=O)(=O)O)[C@@H](O[C@H]2[C@H](O)[C@@H](OS(=O)(=O)O)[C@H](OC[C@@H](O)[C@@H](O)[C@H](O)[C@@H](O)CNc3cccc(NC(=O)CCCCC4CCSS4)c3)O[C@H]2C(=O)O)O[C@@H]1CO` (stereo partly drawn), the figures for the Kd (at Fibronectin; in assay [1]) were 30 nM and 900 nM, respectively.

Consider `CO[C@H]1[C@H](O)[C@@H](NS(=O)(=O)O)[C@@H](O[C@H]2[C@H](O)[C@@H](O)[C@H](OC[C@@H](O)[C@@H](O)[C@H](O)[C@@H](O)CNc3cccc(NC(=O)CCCCC4CCSS4)c3)O[C@@H]2C(=O)O)O[C@@H]1CO` (stereo partly drawn), for which the values for the Kd (at Fibronectin; in assay [1]) were 33 nM and 4300 nM, respectively.

For `CO[C@H]1[C@H](O)[C@@H](NS(=O)(=O)O)[C@@H](O[C@H]2[C@H](O)[C@@H](OS(=O)(=O)O)[C@H](OC[C@@H](O)[C@@H](O)[C@H](O)[C@@H](O)CNc3cccc(NC(=O)CCCCC4CCSS4)c3)O[C@H]2C(=O)O)O[C@@H]1COS(=O)(=O)O` (stereo partly drawn), the Kd on Fibronectin worked out at 5.5 nM; in assay [1] it was 1000 nM.
